The results in this text go back to ChEMBL document CHEMBL5576097, “Synthesis and biological evaluation of novel penindolone derivatives as potential antiproliferative agents against SCLC in vitro” (Bioorg Med Chem Lett, 2024).

Molecules are shown by their SMILES. Active and inactive are the calls of the source. The calls are words filed in the database; no cut-off is given here.

By IC50 is commonly meant the concentration needed to halve the response being measured. Low readings indicate inhibition by little substance, high ones a need for much substance. Usually inhibition stands for the percentage by which the read-out fell short of the control.

In assay [1] the test system is H69AR. In words: Antiproliferative activity against human NCI-H69AR cells by SRB assay. The format is functional, cell-based.
Assay [2] concerns H69AR. The assay is described as follows: Induction of apoptosis in human NCI-H69AR cells assessed as late apoptotic cells at 4 micromol/L measured after 48 hrs by Annexin V-FITC/PI staining based flow cytometry analysis (reference value: 0.38%). Type of assay: functional. As to conditions: dose 4 µmol/L, at 4 µM. In general terms: A flow cytometer gives signals particle by particle.

Assay [3] deals with H69AR. The assay is described as follows: Induction of apoptosis in human NCI-H69AR cells assessed as increase in cleaved PARP protein expression by Western blot analysis. The format is functional, cell-based. As to conditions: dose 0.5-8 µmol/L. On the technique in general: In western blotting, separated proteins are transferred to a membrane and probed.
Assay [4] deals with H69AR. In words: Induction of apoptosis in human NCI-H69AR cells assessed as dead cells at 4 micromol/L measured after 48 hrs by Annexin V-FITC/PI staining based flow cytometry analysis (reference value: 0%). The format is functional. Conditions: dose 4 µmol/L, at 4 µM.
Another assay deals with NCI-H358. The assay is described as follows: Antiproliferative activity against human NCI-H358 cells by SRB assay. Type of assay: functional, cell-based. On the technique in general: Sulforhodamine B stains cellular protein and so reports cell mass.
For assay [5], the system named is H69AR. The assay is described as follows: Induction of apoptosis in human NCI-H69AR cells assessed as reduction in XIAP protein expression by Western blot analysis. Type of assay: functional, cell-based. As to conditions: dose 0.5-8 µmol/L.
Assay [6] relates to H69AR. In words: Induction of apoptosis in human NCI-H69AR cells assessed as live cells at 8 micromol/L measured after 48 hrs by Annexin V-FITC/PI staining based flow cytometry analysis (reference value: 97.7%). The format is functional. Conditions: dose 8 µmol/L, at 8 µM.
Assay [7] relates to H69AR. The assay is described as follows: Induction of apoptosis in human NCI-H69AR cells assessed as reduction in Bcl-2 protein expression by Western blot analysis. Type of assay: functional, cell-based. As to conditions: dose 0.5-8 µmol/L.
For assay [8], the system named is H69AR. The assay is described as follows: Induction of apoptosis in human NCI-H69AR cells assessed as early apoptotic cells at 8 micromol/L measured after 48 hrs by Annexin V-FITC/PI staining based flow cytometry analysis (reference value: 1.96%). Type of assay: functional. Conditions: dose 8 µmol/L, at 8 µM.
Assay [9] deals with H69AR. The assay is described as follows: Induction of apoptosis in human NCI-H69AR cells assessed as early apoptotic cells at 2 micromol/L measured after 48 hrs by Annexin V-FITC/PI staining based flow cytometry analysis (reference value: 1.96%). Conditions: dose 2 µmol/L, at 2 µM. Type of assay: functional.
Assay [10] concerns H69AR. In words: Inhibition of colony formation in human NCI-H69AR cells at 8 uM relative to control. The format is functional.
The test system of assay [11] is H69AR. The assay is described as follows: Inhibition of colony formation in human NCI-H69AR cells. The format is functional, cell-based. Conditions: dose 0-8 µM.
For assay [12], the system named is H69AR. The assay is described as follows: Induction of apoptosis in human NCI-H69AR cells assessed as increase in BAX protein expression by Western blot analysis. Type of assay: functional, cell-based. Conditions: dose 0.5-8 µmol/L.
For assay [13], the system named is H69AR. The assay is described as follows: Induction of apoptosis in human NCI-H69AR cells assessed as late apoptotic cells at 8 micromol/L measured after 48 hrs by Annexin V-FITC/PI staining based flow cytometry analysis (reference value: 0.38%). Type of assay: functional. As to conditions: dose 8 µmol/L, at 8 µM.
Assay [14] deals with H69AR. The assay is described as follows: Induction of apoptosis in human NCI-H69AR cells assessed as dead cells at 8 micromol/L measured after 48 hrs by Annexin V-FITC/PI staining based flow cytometry analysis (reference value: 0%). The format is functional. As to conditions: dose 8 µmol/L, at 8 µM.
Assay [15] relates to H69AR. In words: Induction of apoptosis in human NCI-H69AR cells assessed as dead cells at 2 micromol/L measured after 48 hrs by Annexin V-FITC/PI staining based flow cytometry analysis (reference value: 0%). The format is functional. Conditions: dose 2 µmol/L, at 2 µM.
The subject of assay [16] is H69AR. In words: Induction of apoptosis in human NCI-H69AR cells assessed as increase in cleaved caspase-8 protein expression by Western blot analysis. As to conditions: dose 0.5-8 µmol/L. Type of assay: functional, cell-based.
Assay [17] relates to H69AR. In words: Induction of cell cycle arrest in human NCI-H69AR cells assessed as increase in number of cells in G0/G1 phase at 0 to 8 uM measured after 24 hrs by flow cytometry analysis. The format is functional, cell-based. As to conditions: dose 0-8 µM.
Assay [18] deals with H69AR. In words: Induction of apoptosis in human NCI-H69AR cells assessed as live cells at 2 micromol/L measured after 48 hrs by Annexin V-FITC/PI staining based flow cytometry analysis (reference value: 97.7%). The format is functional. As to conditions: dose 2 µmol/L, at 2 µM.
The test system of the next assay is A549. In words: Antiproliferative activity against human A549 cells by SRB assay. Type of assay: functional, cell-based.
In assay [19] the test system is H69AR. In words: Induction of apoptosis in human NCI-H69AR cells assessed as early apoptotic cells at 4 micromol/L measured after 48 hrs by Annexin V-FITC/PI staining based flow cytometry analysis (reference value: 1.96%). Type of assay: functional. As to conditions: dose 4 µmol/L, at 4 µM.
Assay [20] has as its system H69AR. In words: Induction of cell cycle arrest in human NCI-H69AR cells assessed as reduction in number of cells in S phase measured after 24 hrs by flow cytometry analysis. The format is functional, cell-based. Conditions: dose 0-8 µM.
In assay [21] the test system is H69AR. In words: Induction of apoptosis in human NCI-H69AR cells assessed as late apoptotic cells at 2 micromol/L measured after 48 hrs by Annexin V-FITC/PI staining based flow cytometry analysis (reference value: 0.38%). The format is functional. Conditions: dose 2 µmol/L, at 2 µM.
In assay [22] the test system is H69AR. The assay is described as follows: Induction of apoptosis in human NCI-H69AR cells assessed as live cells at 4 micromol/L measured after 48 hrs by Annexin V-FITC/PI staining based flow cytometry analysis (reference value: 97.7%). Conditions: dose 4 µmol/L, at 4 µM. Type of assay: functional.

The compound `Cc1cc(C(=O)CC(C)C)c(O)c(Cc2[nH]c3ccccc3c2Cc2c(O)c(C)cc(C(=O)CC(C)C)c2O)c1O` yielded an IC50 in the assay on H69AR [1] above 50 µM.

Regarding `Cc1cc(C(=O)c2cccc(F)c2)c(O)c(Cc2[nH]c3ccccc3c2Cc2c(O)c(C)cc(C(=O)c3cccc(F)c3)c2O)c1O`, in the assay with H69AR [1], the IC50 is 1.94 µM.

On to `CCC(=O)c1cc(C)c(O)c(Cc2[nH]c3ccccc3c2Cc2c(O)c(C)cc(C(=O)CC)c2O)c1O`, for which, in the assay on H69AR [1], the IC50 was above 50 µM.

In the case of `CCc1cc(C(C)=O)c(O)c(Cc2[nH]c3ccccc3c2Cc2c(O)c(CC)cc(C(C)=O)c2O)c1O`, in the assay on H69AR [1], the IC50 is above 50 µM.

Turning to `Cc1cc(C(=O)c2ccccc2Cl)c(O)c(Cc2[nH]c3ccccc3c2Cc2c(O)c(C)cc(C(=O)c3ccccc3Cl)c2O)c1O`, half-maximal inhibition in the assay on H69AR [1] (IC50) was put at 5.97 µM.

`COc1cccc(C(=O)c2cc(C)c(O)c(Cc3[nH]c4ccccc4c3Cc3c(O)c(C)cc(C(=O)c4cccc(OC)c4)c3O)c2O)c1` registered an IC50 in the assay with H69AR [1] of 4.25 µM.

In the case of `Cc1cc(C(=O)c2ccc(F)cc2)c(O)c(Cc2[nH]c3ccccc3c2Cc2c(O)c(C)cc(C(=O)c3ccc(F)cc3)c2O)c1O`, the IC50 with H69AR [1] was found to be 2.21 µM.

`Cc1cccc(C(=O)c2cc(C)c(O)c(Cc3[nH]c4ccccc4c3Cc3c(O)c(C)cc(C(=O)c4cccc(C)c4)c3O)c2O)c1` registered a concentration for half-maximal inhibition (IC50) in the assay on H69AR [1] of 4.78 µM.

The compound `Cc1cc(C(=O)c2cccc(Br)c2)c(O)c(Cc2[nH]c3ccccc3c2Cc2c(O)c(C)cc(C(=O)c3cccc(Br)c3)c2O)c1O` showed an IC50 in the assay on H69AR [1] of 1.86 µM.

On to `Cc1cc(C(=O)c2ccc(Cl)cc2)c(O)c(Cc2[nH]c3ccccc3c2Cc2c(O)c(C)cc(C(=O)c3ccc(Cl)cc3)c2O)c1O`, for which, in the assay with H69AR [1], it took 1.64 µM to reach half-maximal inhibition (IC50).

`Cc1cc(C(=O)c2ccccc2)c(O)c(Cc2[nH]c3ccccc3c2Cc2c(O)c(C)cc(C(=O)c3ccccc3)c2O)c1O` registered an IC50 in the assay with H69AR [1] of 7.58 µM.

In turn, `Cc1cc(C(=O)c2ccc(C(F)(F)F)cc2)c(O)c(Cc2[nH]c3ccccc3c2Cc2c(O)c(C)cc(C(=O)c3ccc(C(F)(F)F)cc3)c2O)c1O` came in with an IC50 in the assay on H69AR [1] of 4.02 µM.

Regarding `Cc1cc(C(=O)c2ccccc2F)c(O)c(Cc2[nH]c3ccccc3c2Cc2c(O)c(C)cc(C(=O)c3ccccc3F)c2O)c1O`, in the assay with H69AR [1], 5.34 µM corresponded to half-maximal inhibition (IC50).

As to `Cc1cc(C(=O)c2ccc3ccccc3c2)c(O)c(Cc2[nH]c3ccccc3c2Cc2c(O)c(C)cc(C(=O)c3ccc4ccccc4c3)c2O)c1O`, in the assay with H69AR [1], the IC50 was 41.5 µM.

As to `Cc1cc(C(=O)c2cccc(Cl)c2)c(O)c(Cc2[nH]c3ccccc3c2Cc2c(O)c(C)cc(C(=O)c3cccc(Cl)c3)c2O)c1O`, the 50% inhibitory concentration (IC50) with H69AR [1] turned out to be 2.81 µM.

Take `Cc1ccccc1C(=O)c1cc(C)c(O)c(Cc2[nH]c3ccccc3c2Cc2c(O)c(C)cc(C(=O)c3ccccc3C)c2O)c1O`: inhibition with H69AR [1] was half-maximal at 3.17 µM (IC50).

For `Cc1cc(C(=O)c2ccc(Cl)cc2Cl)c(O)c(Cc2[nH]c3ccccc3c2Cc2c(O)c(C)cc(C(=O)c3ccc(Cl)cc3Cl)c2O)c1O`, 4 µM corresponded to half-maximal inhibition with H69AR [1] (IC50).

`COc1ccc(C(=O)c2cc(C)c(O)c(Cc3[nH]c4ccccc4c3Cc3c(O)c(C)cc(C(=O)c4ccc(OC)cc4)c3O)c2O)cc1` came in with an IC50 with H69AR [1] of 3.36 µM.

The compound `CC(=O)c1cc(C)c(O)c(Cc2[nH]c3ccccc3c2Cc2c(O)c(C)cc(C(C)=O)c2O)c1O` returned an IC50 with H69AR [1] of 42.5 µM.

Turning to `Cc1ccc(C(=O)c2cc(C)c(O)c(Cc3[nH]c4ccccc4c3Cc3c(O)c(C)cc(C(=O)c4ccc(C)cc4)c3O)c2O)cc1`, the half-inhibitory concentration (IC50) with H69AR [1] was 3.41 µM.

In the case of `Cc1cc(C(=O)c2ccc(CCl)cc2)c(O)c(Cc2[nH]c3ccccc3c2Cc2c(O)c(C)cc(C(=O)c3ccc(CCl)cc3)c2O)c1O`, inhibition in the assay with H69AR [1] was half-maximal at 13.2 µM (IC50).

Take `Cc1cc(C(=O)c2ccc(Br)cc2)c(O)c(Cc2[nH]c3ccccc3c2Cc2c(O)c(C)cc(C(=O)c3ccc(Br)cc3)c2O)c1O`: the Activity in the assay with H69AR [2] is 5.7%; in the assay on H69AR [3], “Dose-Dependent Effect”; with H69AR [4] it was 0.057%; in the assay on H69AR [5], “Dose-Dependent Effect”; in the assay with H69AR [6], 62.8%; in the assay with H69AR [7], “Dose-Dependent Effect”. Besides, the Activity in the assay with H69AR [8] was 28.5%; in the assay with H69AR [9] it was 4.85%; in the assay on H69AR [12] it was “Dose-Dependent Effect”; in the assay on H69AR [13] it was 8.22%; with H69AR [14] it was 0.46%; with H69AR [15] it was 0.01%. Besides, the Activity entry is “Dose-Dependent Effect” in the assay on H69AR [16]; 92.9% in the assay on H69AR [18]; 11.3% in the assay with H69AR [19]; “Dose-Dependent Effect” in the assay on H69AR [20]; 2.24% in the assay with H69AR [21]; 82.9% with H69AR [22]. The half-inhibitory concentration (IC50) in the assay on NCI-H358 is 35.8 µM; in the assay with H69AR [1], 1.58 µM; in the assay on A549 it was 21.2 µM. In addition, the inhibition at 8 µM with H69AR [10] came to 100%. Further, the inhibition result with H69AR [11] is “Dose-Dependent Effect”. Also, the outcome with H69AR [17] was Active.

`Cc1cc(C(=O)c2ccccc2Br)c(O)c(Cc2[nH]c3ccccc3c2Cc2c(O)c(C)cc(C(=O)c3ccccc3Br)c2O)c1O` showed an IC50 in the assay with H69AR [1] of 7 µM.
